Experimental data reported in ChEMBL document CHEMBL2396560, “Discovery of (R)-4-cyclopropyl-7,8-difluoro-5-(4-(trifluoromethyl)phenylsulfonyl)-4,5-dihydro-1H-pyrazolo[4,3-c]quinoline (ELND006) and (R)-4-cyclopropyl-8-fluoro-5-(6-(trifluoromethyl)pyridin-3-ylsulfonyl)-4,5-dihydro-2H-pyrazolo[4,3-c]quinoline (ELND007): metabolically stable γ-secretase …” (J Med Chem, 2013).

Columns and labels:
[1] = test system: Liver microsomes; experiment: Glucuronidation metabolism in human liver microsomes assessed as compound remaining; assay type: ADME, Microsome
[2] = test system: Liver; experiment: Oxidative metabolism in dog liver microsomes assessed as compound remaining; assay type: ADME, Canis lupus familiaris, Microsome
[3] = test system: CHO; experiment: Selctivity ratio of ED50 for gamma-secretase in CHO cells assessed expressing NotchdeltaE assessed as inhibition of notch cleavage to ED50 for gamma-secretase in CHO cells assessed expressing APPSw assessed as inhibition of amyloid beta(1 to x) secretion; assay type: cell-based; conditions: Cricetulus griseus
[4] = test system: Liver microsomes; experiment: Glucuronidation metabolism in rat liver microsomes assessed as compound remaining; assay type: ADME, Microsome
[5] = test system: Liver; experiment: Glucuronidation metabolism in dog liver microsomes assessed as compound remaining; assay type: ADME, Canis lupus familiaris, Microsome
[6] = test system: Liver microsomes; experiment: Oxidative metabolism in rat liver microsomes assessed as compound remaining; assay type: ADME, Microsome
[7] = molecular target: Gamma-secretase (Homo sapiens) (UniProt Q96BI3+Q9NZ42+Q8WW43+P49768+Q92542+P49810); experiment: Selctivity ratio of IC50 for partially purified human gamma-secretase-mediated cleavage of notch fusion protein to IC50 for partially purified human gamma-secretase-mediated cleavage of MBP-APPc125Sw fusion protein; assay type: protein-complex assay
[8] = molecular target: Gamma-secretase; experiment: Inhibition of partially purified human gamma-secretase-mediated cleavage of MBP-APPc125Sw fusion protein measured after overnight incubation by ELISA; assay type: protein-complex assay
[9] = test system: CHO; experiment: Inhibition of gamma-secretase in CHO cells assessed expressing APPSw assessed as inhibition of amyloid beta(1 to x) secretion after overnight incubation by ELISA; assay type: cell-based; conditions: Cricetulus griseus
[10] = test system: Liver; experiment: Glucuronidation metabolism in mouse liver microsomes assessed as compound remaining; assay type: ADME, Microsome
[11] = test system: CHO; experiment: Inhibition of gamma-secretase in CHO cells assessed expressing NotchdeltaE assessed as inhibition of notch cleavage after overnight incubation by luciferase reporter gene assay; assay type: cell-based; conditions: Cricetulus griseus
[12] = molecular target: Gamma-secretase; experiment: Inhibition of partially purified human gamma-secretase-mediated cleavage of notch fusion protein measured after overnight incubation by ELISA; assay type: protein-complex assay
[13] = test system: Liver microsomes; experiment: Oxidative metabolism in human liver microsomes assessed as compound remaining; assay type: ADME, Microsome
[14] = test system: Liver; experiment: Oxidative metabolism in mouse liver microsomes assessed as compound remaining; assay type: ADME, Microsome
[15] = test system: Mus musculus; experiment: Reduction in amyloid beta (x to 40) in FVB mouse cortex at 3 mg/kg, po administered as single dose measured at 3 hrs; assay type: functional; design: scale not given: the % may be the effect or the level left
[16] = test system: Mus musculus; experiment: Reduction in amyloid beta (x to 40) in FVB mouse cortex at 10 mg/kg, po administered as single dose measured at 3 hrs; assay type: functional; design: scale not given: the % may be the effect or the level left
[17] = test system: Mus musculus; experiment: Reduction in amyloid beta (x to 40) in FVB mouse cortex at 30 mg/kg, po administered as single dose measured at 3 hrs; assay type: functional; design: scale not given: the % may be the effect or the level left

O=S(=O)(c1ccc(Cl)cc1)N1Cc2c[nH]nc2-c2ccc(F)cc21
Stability [1]: 3%
Stability [2]: 0%
Ratio ED50 [3]: 69
Stability [4]: 99%
Stability [5]: 83%
Stability [6]: 0%
Ratio IC50 [7]: 5.8
IC50 [8]: 38 nM
ED50 [9]: 160 nM
Stability [10]: 77%
ED50 [11]: 11000 nM
IC50 [12]: 220 nM
Stability [13]: 1%
Stability [14]: 22%

O=S(=O)(c1ccc(Cl)cc1)N1[C@H]2CCC[C@@H]1c1cn[nH]c1C2
Stability [1]: 0%
Stability [2]: 2%
Stability [4]: 0%
Stability [5]: 100%
Stability [6]: 5%
ED50 [9]: 5.2 nM
Stability [10]: 4%
ED50 [11]: 690 nM
Stability [13]: 50%
Stability [14]: 15%

CC[C@H]1Cc2n[nH]cc2[C@@H](CC)N1S(=O)(=O)c1ccc(Cl)cc1 [ENT A]
Stability [1]: 1%
Stability [2]: 0%
Ratio ED50 [3]: 95
Stability [4]: 1%
Stability [5]: 38%
Stability [6]: 1%
Ratio IC50 [7]: 13
IC50 [8]: 0.37 nM
ED50 [9]: 0.75 nM
Stability [10]: 11%
ED50 [11]: 71 nM
IC50 [12]: 4.7 nM
Stability [13]: 1%
Stability [14]: 1%

C[C@@H]1c2c[nH]nc2-c2cc(F)ccc2N1S(=O)(=O)c1ccc(F)cc1
Stability [1]: 70%
Stability [2]: 49%
Ratio ED50 [3]: 54
Stability [4]: 82%
Stability [5]: 84%
Stability [6]: 21%
Ratio IC50 [7]: 33
IC50 [8]: 1.3 nM
ED50 [9]: 7.8 nM
Stability [10]: 84%
ED50 [11]: 410 nM
IC50 [12]: 43 nM
Stability [13]: 17%
Stability [14]: 22%

C[C@@H]1c2c[nH]nc2-c2cc(F)c(F)cc2N1S(=O)(=O)c1ccc(C(F)(F)F)cc1
Stability [1]: 80%
Stability [2]: 54%
Ratio ED50 [3]: 68
Stability [4]: 86%
Stability [5]: 83%
Stability [6]: 36%
Ratio IC50 [7]: 20
IC50 [8]: 2.1 nM
ED50 [9]: 13 nM
Stability [10]: 93%
ED50 [11]: 890 nM
IC50 [12]: 42 nM
Stability [13]: 28%
Stability [14]: 20%

O=S(=O)(c1ccc(Cl)cc1)N1Cc2c[nH]nc2-c2ccccc21
Stability [1]: 11%
Stability [2]: 0%
Ratio ED50 [3]: 94
Stability [4]: 93%
Stability [5]: 89%
Stability [6]: 0%
IC50 [8]: 327 nM
ED50 [9]: 100 nM
Stability [10]: 81%
ED50 [11]: 9400 nM
IC50 [12]: 250 nM
Stability [13]: 0%
Stability [14]: 3%

O=S(=O)(c1ccc(F)cc1)N1c2cc(F)c(F)cc2-c2n[nH]cc2[C@H]1C1CC1
Stability [1]: 75%
Stability [2]: 47%
Ratio ED50 [3]: 65
Stability [4]: 91%
Stability [5]: 89%
Stability [6]: 51%
Ratio IC50 [7]: 29
IC50 [8]: 0.33 nM
ED50 [9]: 1.3 nM
Stability [10]: 93%
ED50 [11]: 85 nM
IC50 [12]: 9.6 nM
Stability [13]: 24%
Stability [14]: 52%

O=S(=O)(c1ccc(Cl)cc1)N1Cc2c[nH]nc2-c2cc(F)ccc21
Stability [1]: 69%
Stability [2]: 0%
Ratio ED50 [3]: 75
Stability [4]: 91%
Stability [5]: 86%
Stability [6]: 0%
Ratio IC50 [7]: 7.3
IC50 [8]: 22 nM
ED50 [9]: 99 nM
Stability [10]: 80%
ED50 [11]: 7400 nM
IC50 [12]: 160 nM
Stability [13]: 0%
Stability [14]: 5%

O=S(=O)(N[C@H](CO)C(C(F)(F)F)C(F)(F)F)c1ccc(Cl)s1 [BEGACESTAT]
Activity [15]: 18%
Activity [16]: 20%
Stability [1]: 75%
Stability [2]: 78%
Ratio ED50 [3]: 45
Stability [4]: 0%
Activity [17]: 33%
Stability [5]: 0%
Stability [6]: 54%
Ratio IC50 [7]: 6.9
IC50 [8]: 1.6 nM
ED50 [9]: 7.8 nM
Stability [10]: 36%
ED50 [11]: 350 nM
IC50 [12]: 11 nM
Stability [13]: 78%
Stability [14]: 89%

CC(C)[C@@H]1c2c[nH]nc2-c2cc(F)c(F)cc2N1S(=O)(=O)c1ccc(C(F)(F)F)cc1
Stability [1]: 76%
Stability [2]: 17%
Ratio ED50 [3]: 73
Stability [4]: 93%
Stability [5]: 87%
Stability [6]: 12%
Ratio IC50 [7]: 12
IC50 [8]: 1.4 nM
ED50 [9]: 5.6 nM
Stability [10]: 95%
ED50 [11]: 410 nM
IC50 [12]: 17 nM
Stability [13]: 22%
Stability [14]: 15%

O=S(=O)(c1ccc(C(F)(F)F)cc1)N1c2ccccc2-c2n[nH]cc2[C@H]1C1CC1
Stability [1]: 99%
Stability [2]: 46%
Ratio ED50 [3]: 63
Stability [4]: 87%
Stability [5]: 99%
Stability [6]: 40%
Ratio IC50 [7]: 15
IC50 [8]: 0.18 nM
ED50 [9]: 0.41 nM
Stability [10]: 98%
ED50 [11]: 26 nM
IC50 [12]: 2.7 nM
Stability [13]: 36%
Stability [14]: 51%

O=S(=O)(c1ccc(C(F)(F)F)cc1)N1c2ccc(F)cc2-c2n[nH]cc2[C@H]1C1CC1
Stability [1]: 82%
Stability [2]: 80%
Ratio ED50 [3]: 67
Stability [4]: 91%
Stability [5]: 88%
Stability [6]: 59%
Ratio IC50 [7]: 12
IC50 [8]: 0.14 nM
ED50 [9]: 0.79 nM
Stability [10]: 97%
ED50 [11]: 53 nM
IC50 [12]: 1.7 nM
Stability [13]: 84%
Stability [14]: 72%

C[C@@H]1c2c[nH]nc2-c2cc(F)ccc2N1S(=O)(=O)c1ccc(Cl)cc1
Stability [2]: 40%
Ratio ED50 [3]: 63
Stability [4]: 92%
Stability [5]: 97%
Stability [6]: 2%
Ratio IC50 [7]: 23
ED50 [9]: 2.7 nM
Stability [10]: 91%
ED50 [11]: 170 nM
IC50 [12]: 14 nM
Stability [13]: 1%
Stability [14]: 7%
